Like-named read-outs stand apart in the source and are kept apart here.
Assays:
CCRF-CEM cell line [1] = experiment: dCK cellular assay: CCRF-CEM proliferation in the presence of dT and dC; assay type: cell-based, human; conditions: for activity at 0.078 µM: 78 nM; for activity at 0.156 µM: 156 nM; for activity at 0.312 µM: 312 nM; for activity at 0.625 µM: 625 nM; for activity at 1.25 µM: 1250 nM; for activity at 2.5 µM: 2500 nM; for activity at 5 µM: 5000 nM; for activity at 10 µM: 10000 nM; for activity at 20 µM: 20000 nM; for activity at 40 µM: 40000 nM; for activity at 0.00975 µM: 9.75 nM; for activity at 0.0195 µM: 19.5 nM; for activity at 0.039 µM: 39 nM; for fold improvement of cellular IC50: versus the preceding compound of the optimization
Method in brief: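 Two conditions in T-ALL CCRF-CEM cells: compound only, and compound with thymidine blocking de novo synthesis and deoxycytidine rescuing via dCK. Metabolic dye fluorescence (560/590 nm) gives % proliferation vs DMSO; IC50s, mean ± SD of at least three triplicate runs.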

dCK-C3S-S74E = experiment: Thermal shift assay (TSA); conditions: for ΔTm, dCK thermal stabilization (TSA): 5 μM protein, 50 μM compound; for Thermal Shift Assay Mean (ΔTm (º)): Figure 2b; for THERMAL SHIFT ASSAY +Tm (°): mean ± SD
[2] = Plasma pharmacokinetics after IP administration; assay type: in vivo; conditions: male, Swiss, mouse, mice
Protocol: (§1) To evaluate the in vivo toxicity selected compounds were injected by intraperitoneal (IP) route to 7 weeks-old male Swiss mice (n = 2) at 10, 20, 40, 50, or 80 mg/kg by unique injection. […] Compounds were administered in their hydrochloride salt forms. Mice were then observed closely for the next one hour, then every hour for 8 h. Observations were continued for 72 h for signs of pain or toxicity such as change in the behavior and in the activity in the cage (decreased locomotion) or change in the appearance (curved back, eyes half-closed, bristle hair, hips hollowed out). In vivo toxicity of compound OR0642 at 40 and 80 mg/kg was also assessed in the NOD-SCID-IL2Rγc null (NSG) mice model for 2 weeks in the presence and absence of dT to confirm the safety of the compound. […]. Blood samples were collected and spun at 10,000 × g prior to collecting the plasma supernatants. All plasma samples were frozen at −80 °C before sample processing. 13 μl of each plasma sample was mixed with 33 μl of acetonitrile to precipitate proteins and extract the compound. Samples were vortexed for 5 min and then placed in an ultrasonic bath for 1 min. The precipitated proteins were sedimented by centrifugation (15,000 × g, 5 min, 16 °C). Supernatants were transferred to a microplate to be analyzed by LC–MS/MS. All samples were analyzed with a UHPLC coupled to a Shimadzu LC-MS 8030 triple quadrupole. The solutions of a standard range, prepared with plasma from untreated mice, were analyzed in the same series of injections.

CCRF-CEM cell line [3] = experiment: CCRF-CEM proliferation, compound alone (nonspecific toxicity); assay type: cell-based, human
Protocol: The dCK cellular assay was set up to assess the ability to inhibit dCK activity in a cellular model. The model was developed with a T-cell acute lymphoblastic leukemia cell line (CCRF-CEM), because of its high dependence on the SP, thus on dCK activity. Cellular assays were performed to assess the inhibition of cell proliferation under two conditions: (i) in the presence of the compound alone to determine the nonspecific effect on cells, independent of dCK (nonspecific toxicity) and (ii) in the presence of an inhibitor of the DNP to determine the ability of compounds to inhibit dCK and decrease tumor proliferation (activity on dCK). The inhibitor of the DNP chosen for the experiments was thymidine (dT), a physiological inhibitor of ribonucleotide reductase which arrests cell proliferation in phase S. The dTTP produced via thymidine kinase from dT acts as a RNR inhibitor by an allosteric regulation of the R1 subunit. The addition of the nucleoside deoxycytidine (dC) in the medium allows the rescue of cell proliferation by passing only through the salvage pathway, mediated by dCK. dC needs to be added exogenously to mimic physiological concentrations because it is not present in the cell culture medium, on the contrary to mouse model, in which it is naturally present in the serum. Therefore, cell proliferation under these conditions (+dT +dC) is dCK dependent and it is possible to determine the IC50 of dCK inhibitors on the inhibition of cell proliferation. Results are expressed as % cell proliferation relative to the control with DMSO.
The amount of reduced dye formed by metabolically active cells was quantified by its fluorescence measured at 560 nm (excitation) and 590 nm (emission) in a microplate reader (CLARIOstar, BMG Labtech). A blank well without cells was used as a background control. Each experiment was performed at least three times (with technical triplicates) and data are presented as the mean ± SD.

[4] = Acute in vivo toxicity, unique IP injection; conditions: male, mouse, in vivo; Swiss mice, IP, unique injection; read-out: Maximum tolerated dose
Protocol: as §1

[5] = Homo sapiens, CCRF-CEM, dT 200 µM + dC 1 µM, read-out: Cell proliferation of the CCRF-CEM cell line Mean (% prolif)
[6] = Homo sapiens, CCRF-CEM, dT 200 µM + dC 1 µM, 72 h, read-out: IC50 cell proliferation (dCK cellular assay)

Chain of dCK-C3S-S74E (P27707 whole entry S74E, form open): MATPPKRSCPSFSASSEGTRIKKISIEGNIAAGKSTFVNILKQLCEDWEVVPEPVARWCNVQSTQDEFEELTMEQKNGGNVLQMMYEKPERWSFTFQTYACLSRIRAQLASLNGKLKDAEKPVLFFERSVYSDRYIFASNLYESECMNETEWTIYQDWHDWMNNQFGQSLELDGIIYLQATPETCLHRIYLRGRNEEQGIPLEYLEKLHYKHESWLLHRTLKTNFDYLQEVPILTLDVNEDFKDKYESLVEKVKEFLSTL

| SMILES | activity at 0.078 µM (CCRF-CEM cell line [1]; [5]) | activity at 0.156 µM (CCRF-CEM cell line [1]; [5]) | activity at 0.312 µM (CCRF-CEM cell line [1]; [5]) | activity at 0.625 µM (CCRF-CEM cell line [1]; [5]) | activity at 1.25 µM (CCRF-CEM cell line [1]; [5]) | activity at 2.5 µM (CCRF-CEM cell line [1]; [5]) | activity at 5 µM (CCRF-CEM cell line [1]; [5]) | activity at 10 µM (CCRF-CEM cell line [1]; [5]) | IC50 (CCRF-CEM cell line [1]; [6]) | ΔTm, dCK thermal stabilization (TSA) (dCK-C3S-S74E) | Thermal Shift Assay Mean (ΔTm (º)) (dCK-C3S-S74E) | THERMAL SHIFT ASSAY +Tm (°) (dCK-C3S-S74E) | activity at 0.0195 µM (CCRF-CEM cell line [1]; [5]) | activity at 0.039 µM (CCRF-CEM cell line [1]; [5]) | further results |
| --- | --- | --- | --- | --- | --- | --- | --- | --- | --- | --- | --- | --- | --- | --- | --- |
| Cc1ccc(-c2ccc(CN3CCN(C)CC3)cc2)cc1Nc1nc(-c2nccc(N)n2)cs1 [OR0274] | 103% | 94.8% | 95.1% | 90.1% | 75% | 55.5% | 31% | 7.8% | 2100 nM | 16.7 °C | 16.7 º | 16.7 ± 0.3 ° | – | – | activity at 20 µM (CCRF-CEM cell line [1]; [5]): -0.0667%; activity at 40 µM (CCRF-CEM cell line [1]; [5]): 0.167% |
| CCCN(c1nc(-c2nc(N)cc(N)n2)cs1)c1cc(-c2ccc(CCN3CCN(C)CC3)nc2)ccc1C [OR0602] | 58.6% | 47.4% | 36.8% | 27.7% | 20.9% | 12.7% | – | – | 130 nM | 19.5 °C | 19.7 º | 19.5 ± 0.5 ° | 81.5% | 67.1% | Cmax ([2]; dose 10 mg/Kg): 960 ± 40 nM; Tmax ([2]; dose 10 mg/Kg): 1 h; half-life ([2]; dose 10 mg/Kg, read-out: T ½ (converted)): 2 ± 0.233 h; activity at 0.004875 µM (CCRF-CEM cell line [1]; Homo sapiens, CCRF-CEM, 4.875 nM, dT 200 µM + dC 1 µM, read-out: Cell proliferation of the CCRF-CEM cell line Mean (% prolif)): 91.9%; activity at 0.00975 µM (CCRF-CEM cell line [1]; [5]): 88%; fold improvement of cellular IC50 (CCRF-CEM cell line [1]): ~ 2.4 fold; nonspecific cellular toxicity (CCRF-CEM cell line [3]; CCRF-CEM, absence of dT + dC): without an increase in nonspecific cellular toxicity; MTD at 72 h [4]: 10 mg/kg |
| CCCN(c1nc(-c2nc(N)cc(N)n2)cs1)c1cc(-c2ccc(S(=O)(=O)N3CCN(C)CC3)c(OC)c2)ccc1C [OR0635] | – | – | – | – | – | – | – | – | 15 nM | 20.4 °C | 20.7 º | 20.40 ± 0.9 ° | – | – | Cmax ([2]; dose 40 mg/Kg): 2000 ± 200 nM; Tmax ([2]; dose 40 mg/Kg): 1.5 h; half-life ([2]; dose 40 mg/Kg, read-out: T ½ (converted)): 6.22 ± 3.38 h; half-life ([2]; read-out: half-life): > 5 h; activity at 0.00017 µM (CCRF-CEM cell line [1]; Homo sapiens, CCRF-CEM, 0.17 nM, dT 200 µM + dC 1 µM, read-out: Cell proliferation of the CCRF-CEM cell line Mean (% prolif)): 97%; activity at 0.0005 µM (CCRF-CEM cell line [1]; Homo sapiens, CCRF-CEM, 0.5 nM, dT 200 µM + dC 1 µM, read-out: Cell proliferation of the CCRF-CEM cell line Mean (% prolif)): 85.1%; activity at 0.0015 µM (CCRF-CEM cell line [1]; Homo sapiens, CCRF-CEM, 1.5 nM, dT 200 µM + dC 1 µM, read-out: Cell proliferation of the CCRF-CEM cell line Mean (% prolif)): 74.1%; activity at 0.0046 µM (CCRF-CEM cell line [1]; Homo sapiens, CCRF-CEM, 4.6 nM, dT 200 µM + dC 1 µM, read-out: Cell proliferation of the CCRF-CEM cell line Mean (% prolif)): 62.3%; activity at 0.014 µM (CCRF-CEM cell line [1]; Homo sapiens, CCRF-CEM, 14 nM, dT 200 µM + dC 1 µM, read-out: Cell proliferation of the CCRF-CEM cell line Mean (% prolif)): 48.1%; activity at 0.041 µM (CCRF-CEM cell line [1]; Homo sapiens, CCRF-CEM, 41 nM, dT 200 µM + dC 1 µM, read-out: Cell proliferation of the CCRF-CEM cell line Mean (% prolif)): 35.9%; activity at 0.123 µM (CCRF-CEM cell line [1]; Homo sapiens, CCRF-CEM, 123 nM, dT 200 µM + dC 1 µM, read-out: Cell proliferation of the CCRF-CEM cell line Mean (% prolif)): 24.4%; activity at 0.37 µM (CCRF-CEM cell line [1]; Homo sapiens, CCRF-CEM, 370 nM, dT 200 µM + dC 1 µM, read-out: Cell proliferation of the CCRF-CEM cell line Mean (% prolif)): 17.8%; activity at 1.111 µM (CCRF-CEM cell line [1]; Homo sapiens, CCRF-CEM, 1111 nM, dT 200 µM + dC 1 µM, read-out: Cell proliferation of the CCRF-CEM cell line Mean (% prolif)): 14.8%; activity at 3.333 µM (CCRF-CEM cell line [1]; Homo sapiens, CCRF-CEM, 3333 nM, dT 200 µM + dC 1 µM, read-out: Cell proliferation of the CCRF-CEM cell line Mean (% prolif)): 10.3%; IC50 (CCRF-CEM cell line [1]; Homo sapiens, read-out: dCK CELLULAR ASSAY IC50 (nM), CCRF-CEM, 200 µM dT and 1 µM dC, read-out: dCK […] ASSAY IC50): 15.4 ± 10 nM; IC50 (CCRF-CEM cell line [1]; Homo sapiens, Figure 2a, CCRF-CEM cell line, mean, read-out: IC50 (nM) (Cell Prolif)): 14 nM; MTD at 72 h [4]: > 40 mg/kg; ΔTm (º) (TSA) (dCK-C3S-S74E; Figure 2a, mean): 20.4 º |
| CCCN(c1nc(-c2nc(N)cc(N)n2)cs1)c1cc(-c2ccc(CCN3CCN(C)CC3)cc2)ccc1C [OR0600] | 85.9% | 76.2% | 59.2% | 40.4% | 22.2% | 5.5% | 0.133% | – | 341 nM | 20 °C | 20.0 º | 20.0 ± 0.6 ° | 98.6% | 91.6% | activity at 0.00975 µM (CCRF-CEM cell line [1]; [5]): 104% |
| Cc1ccc(-c2ccc(CCN3CCN(C)CC3)cc2)cc1Nc1nc(-c2nccc(N)n2)cs1 [OR0325] | 100% | 92.4% | 88.7% | 81.5% | 61.9% | 40.5% | 11.6% | 0.0667% | 1680 nM | 17.8 °C | 17.8 º | 17.9 ± 0.3 ° | – | – | activity at 20 µM (CCRF-CEM cell line [1]; [5]): -0.0333%; activity at 40 µM (CCRF-CEM cell line [1]; [5]): 0.3% |
| CCCN(c1nc(-c2nccc(N)n2)cs1)c1cc(-c2ccc(CCN3CCN(C)CC3)cc2)ccc1C [OR0345] | 82% | 72.4% | 63.4% | 51.4% | 37.6% | 19.3% | 2.4% | 0.333% | 505 nM | 18.4 °C | 18.4 º | 18.4 ± 0.2 ° | 90.6% | 85.8% | fold improvement of cellular IC50 (CCRF-CEM cell line [1]): 3 fold |
| Cc1cn([C@H]2C[C@H](O)[C@@H](CO)O2)c(=O)[nH]c1=O [dT, thymidine] | – | – | – | – | – | – | – | – | – | – | – | – | – | – | Cell proliferation of the CCRF-CEM cell line Mean (% prolif) (CCRF-CEM cell line [3]; dT 111 µM alone, 72 h): 33.2% |

— paper PMC10227015, “From a drug repositioning to a structure-based drug design approach to tackle acute lymphoblastic leukemia” (Nature Communications, 2023)
